Experimental data: patent US20180280465A1 (EVER Neuro Pharma GmbH, priority 2015, published 2018)
Where two headings read alike, the source gives them in different places.

Columns and labels:
[1] = test system: NIH/3T3 murine fibroblasts; experiment: Resazurin-fibroblast-assay for assessment of cytotoxicity
Description: The vitality of the fibroblasts was detected with the Resazurin Reagent (Resazurin sodium salt powder (Sigma Aldrich R7017-1G)). Vital and metabolically active cells reduce the non-fluorescent dye resazurin to the fluorescent dye resorufin by using NADH. The amount of fluorescence is proportional to the amount of vital cells. The fluorescence intensity at 535 nm (excitation)/595 nm (emission) is detected with a plate reader.
Cells were cultured in a culture medium (DMEM high glucose) containing 10% FBS, 2 mM L-glutamine and 100 μg/ml penicilline/streptomycin under standard cell culture conditions (37° C., 5% CO2).
The cells were then incubated with the respective solutions in the incubator for 4 h, 18 h, or 24 h (depending on the assay protocol). For every time point a separate 96-well plate was prepared. • Day 1 or 2: Readout—Determination of the fluorescence intensity (resazurin readout): For the determination of the fluorescence intensity (resazurin readout) the medium (100 μl/well) was removed and 100 μl/well resazurin was added (final concentration 0.5 mM; 2.2 ml resazurin stock solution prepared in PBS with a final concentration of 2.5 mM was diluted in 8.8 ml proliferation medium). In the wells serving for the blank control (no cells) 100 μl/well resazurin (0.5 mM) was added. The 96-well plate was then incubated for 1 h in the incubator. The fluorescence intensity was then detected at 535 nm (excitation)/595 nm (emission) with a plate reader.

[2] = in NaCl solution; cited from earlier work
[3] = cited from earlier work

With `N[C@@H](CCC(=O)N[C@@H](CS)C(=O)NCC(=O)O)C(=O)O` [Glutathione, (2S)-2-amino-4-{[(1R)-1-[(carboxymethyl)carbamoyl]-2-sulfanylethyl]carbamoyl}butanoic acid] the “effect on the toxic effect of oxoapomorphine” value ([1]; NIH/3T3 cells, oxoapomorphine present) was “could abolish the toxic effect of oxoapomorphine”.
With `O=C1O[C@H]([C@@H](O)CO)C(O)=C1O` [Ascorbate, (5R)-[(1S)-1,2-dihydroxyethyl]-3,4-dihydroxyfuran-2(5H)-one] the “effect on the toxic effect of oxoapomorphine” value [1] was “had no beneficial effect if the oxidative degradation product oxo-apomorphine was already present in the formulation”.
In the case of `CC(O)CO` (stereo not drawn) [α-propylene glycol, propane-1,2-diol], the “influence of isotonization agent on the cytotoxic effects in the cell culture system” value ([1]; NIH/3T3 fibroblasts) is reported as “did not have any influence (negative or positive) on the cytotoxic effects”.
In the case of `CN1CCc2cccc3c2[C@H]1Cc1ccc(O)c(O)c1-3` [apomorphine, (6aR)-6-methyl-5,6,6a,7-tetrahydro-4H-dibenzo[de,g]quinoline-10,11-diol], the solubility [2] is given as less than 10000 µg/mL, the “duration of effect (mean)” value ([3]; single dose) is given as 40 min and the “incidence of nodule formation” value ([3]; subcutaneous apomorphine infusion therapy, meta analysis) is given as 70%. For the same compound, the “patients terminating therapy because of irritations at the injection site” value ([3]; subcutaneous infusion, within one year) was 70%.
